The record followed here is ChEMBL document CHEMBL1136790, “Identification of 1-arylmethyl-3- (2-aminoethyl)-5-aryluracil as novel gonadotropin-releasing hormone receptor antagonists” (J Med Chem, 2003).

The target in experiment [1] is T1, Gonadotropin-releasing hormone receptor (Homo sapiens, UniProt P30968).
T1 sequence (P30968 whole entry): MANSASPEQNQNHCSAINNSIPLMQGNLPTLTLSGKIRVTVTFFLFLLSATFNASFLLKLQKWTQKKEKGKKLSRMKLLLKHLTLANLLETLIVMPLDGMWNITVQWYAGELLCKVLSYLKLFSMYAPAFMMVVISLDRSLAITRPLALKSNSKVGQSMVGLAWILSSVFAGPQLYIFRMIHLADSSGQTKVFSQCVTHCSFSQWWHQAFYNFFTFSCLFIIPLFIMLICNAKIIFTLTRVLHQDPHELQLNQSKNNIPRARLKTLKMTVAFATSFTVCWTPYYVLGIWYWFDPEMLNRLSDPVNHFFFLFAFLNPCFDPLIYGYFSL
Kind of experiment: Binding affinity was determined towards human gonadotropin-releasing hormone receptor.

Experiment [2] has as its target T1, Gonadotropin-releasing hormone receptor. Briefly: Binding affinity was determined towards human Gonadotropin-releasing hormone receptor.

By Ki is commonly meant the dissociation constant of the complex between target and ligand, obtained from inhibition or displacement. Read a low Ki as tighter binding. In experiment [1], `Cc1c(-c2ccccc2)c(=O)n(CCN(C)CCc2ccccn2)c(=O)n1Cc1c(F)cccc1F` came in with a Ki of 400 nM.
The same measure, in the same setting: in the case of `Cc1c(-c2ccc3c(c2)OCCO3)c(=O)n(CCN(C)CCc2ccccn2)c(=O)n1Cc1c(F)cccc1F` it was 24 nM; in that of `Cc1c(-c2ccc3c(c2)OCO3)c(=O)n(CCN(C)CCc2ccccn2)c(=O)n1Cc1c(F)cccc1F`, 38 nM; in that of `COc1ccc(-c2c(C)n(Cc3c(F)cccc3F)c(=O)n(CCN(C)CCc3ccccn3)c2=O)cc1`, 230 nM.
With `COc1cccc(-c2cn(Cc3c(F)cccc3F)c(=O)n(CCN(C)CCc3ccccn3)c2=O)c1`, the affinity in experiment [1] corresponds to a Ki of 1700 nM.
On the same count and under the same terms, under `COc1cccc(-c2c(C)n(Cc3c(F)cccc3F)c(=O)n(CCN3CCC[C@H]3Cc3ccccn3)c2=O)c1` stands 130 nM; under `COc1cccc(-c2c(C)n(Cc3c(F)cccc3F)c(=O)n(CCN3CCCC3c3ccccn3)c2=O)c1` (stereo unspecified), 530 nM; under `CCc1c(-c2cccc(OC)c2)c(=O)n(CCN(C)CCc2ccccn2)c(=O)n1Cc1c(F)cccc1F`, 2200 nM.
`CCc1cccc(-c2c(C)n(Cc3c(F)cccc3F)c(=O)n(CCN(C)CCc3ccccn3)c2=O)c1`: the affinity in experiment [1] corresponds to a Ki of 220 nM.
On to `Cc1c(-c2ccc(Oc3ccccc3)cc2)c(=O)n(CCN(C)CCc2ccccn2)c(=O)n1Cc1c(F)cccc1F`, for which the Ki in experiment [1] amounted to 30 nM.
Same read-out and setting: in the case of `Cc1c(-c2cccc(O)c2)c(=O)n(CCN(C)CCc2ccccn2)c(=O)n1Cc1c(F)cccc1F` it was 480 nM; in that of `COc1cccc(-c2c(C)n(Cc3c(F)cccc3F)c(=O)n(CCNCCc3c[nH]cn3)c2=O)c1`, 3800 nM; in that of `COc1cccc(-c2c(C)n(Cc3c(F)cccc3F)c(=O)n(CCN3CCC[C@@H]3Cc3ccccn3)c2=O)c1`, 4800 nM.
In turn, `COc1cccc(-c2c(C)n(Cc3c(F)cccc3F)c(=O)n(CCNCCc3ccccc3)c2=O)c1` returned a Ki in experiment [1] of 1100 nM.
As to `Cc1c(-c2cccc(OC(F)(F)F)c2)c(=O)n(CCN(C)CCc2ccccn2)c(=O)n1Cc1c(F)cccc1F`, the Ki in experiment [1] was 4800 nM. This Ki is about 4.4-fold higher than that of the compound before.
In experiment [2], `COc1cccc(-c2c(C)n(Cc3c(F)cccc3F)c(=O)n(CCNCc3ccccc3)c2=O)c1` had a Ki of 240 nM.
